# Numbers after ± are expanded uncertainties.
# Assays:
# [1] = 298.15 K; 101.33 kPa; Liquid; Vibrating tube method
# [2] = refractive index (Na D-line) (dimensionless); details: 298.15 K; 101.33 kPa; Liquid; Standard Abbe refractometry
SMILES,mass density [1],refractive index [2]
CCCC[n+]1ccc(C)cc1.N#CC(=C=[N-])C#N [1-butyl-4-methylpyridinium tricyanomethanide],1036.68 ± 1.3 kg/m3,
CC(C)=O [acetone],785.23 ± 1 kg/m3,1.356 ± 0.0007
CCCCCCC [heptane],679.48 ± 1 kg/m3,1.38519 ± 0.00073
CCCO [propan-1-ol],799.52 ± 1 kg/m3,1.38375 ± 0.00072
c1ccncc1 [pyridine],982.85 ± 1 kg/m3,1.5094 ± 0.00072
